How the values were obtained:
ecNadD = ecNadD (Escherichia coli (strain K12), UniProt P0A752); test: biochemical; type: biochemical
baNadD = baNadD (Bacillus anthracis, UniProt C3L5T6); test: biochemical; type: biochemical
baNadD, sequence (C3L5T6 whole entry, looked up): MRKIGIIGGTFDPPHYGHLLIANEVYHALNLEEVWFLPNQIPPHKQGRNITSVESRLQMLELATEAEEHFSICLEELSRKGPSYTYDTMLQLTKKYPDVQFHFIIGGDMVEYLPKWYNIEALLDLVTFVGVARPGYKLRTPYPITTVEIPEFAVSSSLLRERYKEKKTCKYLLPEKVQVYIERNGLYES

O=C(CSc1nc2ccccc2c(=O)[nH]1)NCc1ccco1 [compound 167]
[…]. coli (ecNadD): 4% | […]. anthracis (baNadD): 0%

O=C(O)CN1C(=O)CC(Cc2ccc(Cl)cc2)C1=O (stereo not drawn) [compound 168]
[…]. coli (ecNadD): 3% | […]. anthracis (baNadD): 0%

O=C(O)CSc1nc2ccccc2n1CC(=O)O [compound 169]
[…]. coli (ecNadD): 3% | […]. anthracis (baNadD): 0%

COc1ccc(S(=O)(=O)Nc2ccc(CC#N)cc2)cc1C [compound 170]
[…]. coli (ecNadD): 3% | […]. anthracis (baNadD): 0%

O=C(NNC(=O)C1CC=CCC1C(=O)O)c1cccc([NH2+][O-])c1 (stereo not drawn) [compound 171]
[…]. coli (ecNadD): 3% | […]. anthracis (baNadD): 24%

O=C(O)c1ccc(/C=N/NC(=O)c2cc3cc(Br)ccc3o2)cc1 [compound 172]
[…]. coli (ecNadD): 3% | […]. anthracis (baNadD): 32%

Nc1nc(SCC(=O)NCC2CCCO2)n[nH]1 (stereo not drawn) [compound 173]
[…]. coli (ecNadD): 3% | […]. anthracis (baNadD): 0%

O=C(O)c1cccc(COc2ccc(CO)cc2Cl)c1 [compound 175]
[…]. coli (ecNadD): 3% | […]. anthracis (baNadD): 0%

O=C(O)CSc1nc(=O)cc(-c2ccccc2)[nH]1 [compound 176]
[…]. coli (ecNadD): 3% | […]. anthracis (baNadD): 0%

O=C(CSC(=O)c1ccccc1)Nc1ccc(Cl)cn1 [compound 177]
[…]. coli (ecNadD): 3% | […]. anthracis (baNadD): 21%

CS(=O)(=O)NCCOc1ccc(S(=O)(=O)NCc2ccccc2)cc1 [compound 179]
[…]. coli (ecNadD): 3% | […]. anthracis (baNadD): 0%

O=C(O)c1cccc(CSc2ncccn2)c1 [compound 180]
[…]. coli (ecNadD): 3% | […]. anthracis (baNadD): 15%

O=C(O)c1ccc(OCOc2ccc(C(=O)O)c(C(=O)O)c2)cc1C(=O)O [compound 181]
[…]. coli (ecNadD): 3% | […]. anthracis (baNadD): 56%

CC(=NNC(=O)COc1ccc(C)cc1)C(=O)O [compound 182]
[…]. coli (ecNadD): 3% | […]. anthracis (baNadD): 14%

Nc1nnc(-c2cc(-c3ccc(Cl)cc3)on2)o1 [compound 183]
[…]. coli (ecNadD): 3% | […]. anthracis (baNadD): 7%

Cc1ccccc1N1CC(C(=O)O)CC1=O (stereo not drawn) [compound 184]
[…]. coli (ecNadD): 2% | […]. anthracis (baNadD): 16%

O=C(O)c1[nH]c2ccc(Cl)cc2c1-c1ccccc1 [compound 185]
[…]. coli (ecNadD): 2% | […]. anthracis (baNadD): 40%

O=C(Nc1ccc([N+](=O)[O-])cn1)c1sc2ccccc2c1Cl [compound 186]
[…]. coli (ecNadD): 2% | […]. anthracis (baNadD): 9%

C=CCSc1nnc(-c2cc(Br)ccc2N)c(O)n1 [compound 187]
[…]. coli (ecNadD): 2% | […]. anthracis (baNadD): 0%

O=S(=O)(NCc1cccs1)c1ccc(Br)cc1 [compound 188]
[…]. coli (ecNadD): 1% | […]. anthracis (baNadD): 0%

O=C(CSc1n[nH]c(=O)[nH]c1=O)N/N=C\c1ccc(Br)cc1 [compound 189]
[…]. coli (ecNadD): 1% | […]. anthracis (baNadD): 0%

CN1CCN(C(=O)c2ccccc2C(=O)O)CC1 [compound 190]
[…]. coli (ecNadD): 1% | […]. anthracis (baNadD): 0%

N/N=C/c1c(Cl)cccc1Cl [compound 191]
[…]. coli (ecNadD): 1% | […]. anthracis (baNadD): 5%

COc1ccc(N(CC(=O)O)S(=O)(=O)c2ccc(C)cc2)cc1Cl [compound 192]
[…]. coli (ecNadD): 1% | […]. anthracis (baNadD): 0%

O=C(O)CCSCCc1ccncc1 [compound 193]
[…]. coli (ecNadD): 1% | […]. anthracis (baNadD): 18%

O=C1NC(=O)/C(=C\c2ccc(O)c(I)c2)N1 [compound 194]
[…]. coli (ecNadD): 1% | […]. anthracis (baNadD): 62%

O=C(NNC(=O)c1ccccc1C(=O)O)c1ccc(Cl)cc1 [compound 195]
[…]. coli (ecNadD): 1% | […]. anthracis (baNadD): 0%

COCCNS(=O)(=O)c1ccc2c(c1)CCN2C(=O)CCC(=O)O [compound 196]
[…]. coli (ecNadD): 1% | […]. anthracis (baNadD): 52%

O=C(CSc1nc2ccccc2[nH]1)Nc1nncs1 [compound 197]
[…]. coli (ecNadD): 0% | […]. anthracis (baNadD): 34%

N=C1NC(=O)C(Cc2ccccc2Cl)S1 (stereo not drawn) [compound 198]
[…]. coli (ecNadD): 0% | […]. anthracis (baNadD): 7%

Cc1cc(S(=O)(=O)Nc2cccc(C(=O)O)c2)ccc1Cl [compound 199]
[…]. coli (ecNadD): 0% | […]. anthracis (baNadD): 0%

CC(=NNC(=O)CCC(=O)Nc1ccc(Br)cc1)c1ccc2ccccc2c1 [compound 200]
[…]. coli (ecNadD): 0% | […]. anthracis (baNadD): 76%

Cc1ccc(-c2nnc(SCC(=O)O)o2)cc1 [compound 201]
[…]. coli (ecNadD): 0% | […]. anthracis (baNadD): 25%

O=C(N/N=C/c1ccccc1Cl)c1cccnc1 [compound 202]
[…]. coli (ecNadD): 0% | […]. anthracis (baNadD): 32%

O=S(=O)(Nc1ccc(Br)c(Cl)c1)c1cccs1 [compound 203]
[…]. coli (ecNadD): 0% | […]. anthracis (baNadD): 0%

NS(=O)(=O)c1ccc(NC(=O)CSc2ncn(-c3ccccc3)n2)cc1 [compound 205]
[…]. coli (ecNadD): 0% | […]. anthracis (baNadD): 40%

NS(=O)(=O)c1ccc(NC(=S)NCCc2c[nH]c3ccccc23)cc1 [compound 206]
[…]. coli (ecNadD): 0% | […]. anthracis (baNadD): 25%

O=C(O)CCCC(=O)Nc1nc2ccccc2s1 [compound 207]
[…]. coli (ecNadD): 0% | […]. anthracis (baNadD): 7%

CSc1cccc(NS(=O)(=O)c2ccc(F)cc2)c1 [compound 208]
[…]. coli (ecNadD): 0% | […]. anthracis (baNadD): 0%

O=C(O)c1cc(NC(=O)c2ccc(Cl)cc2Cl)cc(C(=O)O)c1 [compound 209]
[…]. coli (ecNadD): 0% | […]. anthracis (baNadD): 0%

Cc1ccc(S(=O)(=O)/N=C(/NCC(=O)O)c2ccccc2)cc1 [compound 211]
[…]. coli (ecNadD): 0% | […]. anthracis (baNadD): 42%

CCC(NS(=O)(=O)c1ccc(OC)cc1)C(=O)O (stereo not drawn) [compound 212]
[…]. coli (ecNadD): 0% | […]. anthracis (baNadD): 32%

NS(=O)(=O)c1ccc(CCNC(=O)c2ccc([NH2+][O-])cc2)cc1 [compound 213]
[…]. coli (ecNadD): 0% | […]. anthracis (baNadD): 54%

NS(=O)(=O)c1ccc(/N=C/c2ccc(Br)cc2)cc1 [compound 214]
[…]. coli (ecNadD): 0% | […]. anthracis (baNadD): 0%

O=C(O)c1ccc(-n2ncc(Cl)c(Cl)c2=O)cc1 [compound 217]
[…]. coli (ecNadD): 0% | […]. anthracis (baNadD): 0%

NS(=O)(=O)c1ccc(N/C=C2\C(=O)Oc3ccccc3C2=O)cc1 [compound 218]
[…]. coli (ecNadD): 0% | […]. anthracis (baNadD): 0%

CCOC(=O)c1ccc(N/C=C2\C(=O)Oc3ccccc3C2=O)cc1 [compound 220]
[…]. coli (ecNadD): 0% | […]. anthracis (baNadD): 0%

O=C(NCc1cccs1)C1CC(c2cccc(Br)c2)=NO1 (stereo not drawn) [compound 222]
[…]. coli (ecNadD): 0% | […]. anthracis (baNadD): 0%

CC(C)COC1CS(=O)(=O)CC1OCC(C)C (stereo not drawn) [compound 223]
[…]. coli (ecNadD): 0% | […]. anthracis (baNadD): 20%

CSc1ccccc1NC(=S)Nc1cccnc1 [compound 224]
[…]. coli (ecNadD): 0% | […]. anthracis (baNadD): 0%

Brc1ccc2ncnc(NCc3cccnc3)c2c1 [compound 225]
[…]. coli (ecNadD): 0% | […]. anthracis (baNadD): 55%

O=C(O)C1CCCN(S(=O)(=O)c2cccc([N+](=O)[O-])c2)C1 (stereo not drawn) [compound 227]
[…]. coli (ecNadD): 0% | […]. anthracis (baNadD): 0%

O=C(CSc1ncnc2ccccc12)Nc1ccc2nsnc2c1 [compound 228]
[…]. coli (ecNadD): 0% | […]. anthracis (baNadD): 28%

O=C(CSc1nc2ccccc2o1)Nc1nncs1 [compound 229]
[…]. coli (ecNadD): 0% | […]. anthracis (baNadD): 0%

CC(=O)Nc1ccc(/N=C/c2ccc([N+](=O)[O-])cc2)cc1 [compound 230]
[…]. coli (ecNadD): 0% | […]. anthracis (baNadD): 0%

Cc1ccc(SCc2cc(=O)n3ncnc3[nH]2)cc1 [compound 231]
[…]. coli (ecNadD): 0% | […]. anthracis (baNadD): 0%

Nc1nc(-c2cccc(Br)c2)cs1 [compound 232]
[…]. coli (ecNadD): 0% | […]. anthracis (baNadD): 12%

N#CCc1ccc(NC(=O)/C=C/c2ccc([N+](=O)[O-])o2)cc1 [compound 233]
[…]. coli (ecNadD): 0% | […]. anthracis (baNadD): 8%

O=C(O)c1ccc(-c2ccccc2F)o1 [compound 234]
[…]. coli (ecNadD): 0% | […]. anthracis (baNadD): 0%

O=C(O)c1ccc2[nH]c(CCc3nc4cc(C(=O)O)ccc4[nH]3)nc2c1 [compound 235]
[…]. coli (ecNadD): 0% | […]. anthracis (baNadD): 0%

O=C(CSc1ccccc1)Nc1cc(C(=O)O)cc(C(=O)O)c1 [compound 236]
[…]. coli (ecNadD): 0% | […]. anthracis (baNadD): 0%

Nc1nn(S(=O)(=O)c2ccccc2)cc1-c1ccc(Cl)cc1 [compound 237]
[…]. coli (ecNadD): 0% | […]. anthracis (baNadD): 0%

O=C(O)CCC(=O)NCc1ccc(C(=O)O)cc1 [compound 238]
[…]. coli (ecNadD): 0% | […]. anthracis (baNadD): 14%

O=C(O)CCC(=O)Nc1ccc(-c2nnc(-c3ccco3)o2)cc1 [compound 239]
[…]. coli (ecNadD): 0% | […]. anthracis (baNadD): 11%

CC(=O)c1cccc(NS(=O)(=O)c2cccc(C(=O)O)c2)c1 [compound 240]
[…]. coli (ecNadD): 0% | […]. anthracis (baNadD): 0%

O=[N+]([O-])c1cccc(S(=O)(=O)Nn2cnnc2)c1 [compound 241]
[…]. coli (ecNadD): 0% | […]. anthracis (baNadD): 59%

CC(c1ccccc1)c1nnc(N)s1 (stereo not drawn) [compound 242]
[…]. coli (ecNadD): 0% | […]. anthracis (baNadD): 18%

Cc1ccc(NS(=O)(=O)c2coc(C(N)=O)c2)cc1F [compound 243]
[…]. coli (ecNadD): 0% | […]. anthracis (baNadD): 0%

CC(=O)NC(=S)Nc1ccc(Cl)c(Cl)c1 [compound 244]
[…]. coli (ecNadD): 0% | […]. anthracis (baNadD): 0%

O=C(NCc1ccc(C(=O)O)cc1)Nc1ccc(Br)cc1Cl [compound 245]
[…]. coli (ecNadD): 0% | […]. anthracis (baNadD): 0%

O=C(O)C(Cc1ccccc1)NS(=O)(=O)c1ccc2c(c1)OCCO2 (stereo not drawn) [compound 246]
[…]. coli (ecNadD): 0% | […]. anthracis (baNadD): 0%

O=C(O)CCC(=O)OC/C=C/c1ccccc1 [compound 247]
[…]. coli (ecNadD): 0% | […]. anthracis (baNadD): 18%

O=C(CSc1nc2ccccc2[nH]1)Nc1cccc(C(=O)O)c1 [compound 248]
[…]. coli (ecNadD): 0% | […]. anthracis (baNadD): 4%

Cn1c(=O)n(C)c2cc(S(=O)(=O)NCCC(=O)O)ccc21 [compound 249]
[…]. coli (ecNadD): 0% | […]. anthracis (baNadD): 1%

NNC(=O)CNC(=O)CNS(=O)(=O)c1ccc(Cl)cc1 [compound 250]
[…]. coli (ecNadD): 0% | […]. anthracis (baNadD): 0%

Source: patent US8785499B2 (priority 2009, dated 2014)
